As usually defined, the IC50 is the concentration needed to halve the response being measured.

SMILES strings stand for the structures. Some results are limits rather than exact numbers.

Drawing on patent US20250122173A1, “MODULATORS OF RHO-ASSOCIATED PROTEIN KINASE” (Redx Pharma Limited, priority 2022, published 2025), this text covers IC50 for 39 molecules.

In experiment [1] the target is T1, ROCK2 (Homo sapiens, UniProt O75116).
T1 construct: N-terminal 6His-tagged ROCK2 catalytic domain 11-552; 6His (N); purchased Dundee University, UK; host or cells: baculovirus expression system
In words: ROCK2 inhibition assay (ADP-Glo kinase assay, called ROCK2 binding activity). The class given is biochemical. The note with it: 20 μM ATP, 1 hour pre-incubation, read-out: ROCK 2 (IC50 category). The method, then:
ROCK2 Binding Activity: Assay for ROCK2 inhibition was performed using the protein construct N-terminal 6His-tagged ROCK2 catalytic domain 11-552 (Dundee University, UK). Protein was purified from a baculovirus expression system. Long S6 peptide ([…]) was used as substrate. Kinase reactions were carried out in 15 μl volume in a 96-well plate (black, half area) using 1.25 nM constitutively active ROCK2 kinase, 100 μM long S6 peptide, 20 μM ATP and test compound in DMSO (or DMSO only for controls). The final concentration of DMSO was 1%. Assay buffer was 50 mM HEPES pH 7.5 supplemented with 0.2 mM EDTA, 10 mM magnesium acetate, 0.01% Tween-20, 1 mM DTT and 0.01% BSA. Test compounds were pre-incubated with ROCK2 kinase for 1 hour before addition of ATP and long S6 peptide. After incubation for a further 1 hour, the amount of ADP produced was measured using ADP-Glo Kinase Assay (Promega) as per manufacturer's instructions. The luminescence was measured on a PHERAstar FS (BMG Labtech). The concentration of test compound required to inhibit ADP production by 50% (the IC50) was calculated using a four-parameter logistic function with software by Dotmatics. […] The category “+” refers to compounds with a ROCK2 or ROCK1 IC50 value of >10 μM. The category “++” refers to compounds with a ROCK2 or ROCK1 IC50 value of 10 to 3 μM. The category “+++” refers to compounds with a ROCK1 or ROCK2 IC50 value of 3 to 0.3 μM. The category “++++” refers to compounds with a ROCK1 or ROCK2 IC50 value of <0.3 μM.

The target in experiment [2] is ROCK1 (Homo sapiens, UniProt Q13464). The experiment in a line: ROCK1 inhibition assay (ROCK1 binding activity, as determined by the assay described for ROCK2). The conditions noted are these: read-out: ROCK 1 (IC50 category). The experiment is classed as biochemical. The method, then: Assay for ROCK2 inhibition was performed using the protein construct N-terminal 6His-tagged ROCK2 catalytic domain 11-552 (Dundee University, UK). Protein was purified from a baculovirus expression system. Long S6 peptide ([…]) was used as substrate. Kinase reactions were carried out in 15 μl volume in a 96-well plate (black, half area) using 1.25 nM constitutively active ROCK2 kinase, 100 μM long S6 peptide, 20 μM ATP and test compound in DMSO (or DMSO only for controls). The final concentration of DMSO was 1%. Assay buffer was 50 mM HEPES pH 7.5 supplemented with 0.2 mM EDTA, 10 mM magnesium acetate, 0.01% Tween-20, 1 mM DTT and 0.01% BSA. Test compounds were pre-incubated with ROCK2 kinase for 1 hour before addition of ATP and long S6 peptide. After incubation for a further 1 hour, the amount of ADP produced was measured using ADP-Glo Kinase Assay (Promega) as per manufacturer's instructions. The luminescence was measured on a PHERAstar FS (BMG Labtech). The concentration of test compound required to inhibit ADP production by 50% (the IC50) was calculated using a four-parameter logistic function with software by Dotmatics. […] The category “+” refers to compounds with a ROCK2 or ROCK1 IC50 value of >10 μM. The category “++” refers to compounds with a ROCK2 or ROCK1 IC50 value of 10 to 3 μM. The category “+++” refers to compounds with a ROCK1 or ROCK2 IC50 value of 3 to 0.3 μM. The category “++++” refers to compounds with a ROCK1 or ROCK2 IC50 value of <0.3 μM.
Chain of ROCK1 (Q13464 whole entry, the tested form may be a part): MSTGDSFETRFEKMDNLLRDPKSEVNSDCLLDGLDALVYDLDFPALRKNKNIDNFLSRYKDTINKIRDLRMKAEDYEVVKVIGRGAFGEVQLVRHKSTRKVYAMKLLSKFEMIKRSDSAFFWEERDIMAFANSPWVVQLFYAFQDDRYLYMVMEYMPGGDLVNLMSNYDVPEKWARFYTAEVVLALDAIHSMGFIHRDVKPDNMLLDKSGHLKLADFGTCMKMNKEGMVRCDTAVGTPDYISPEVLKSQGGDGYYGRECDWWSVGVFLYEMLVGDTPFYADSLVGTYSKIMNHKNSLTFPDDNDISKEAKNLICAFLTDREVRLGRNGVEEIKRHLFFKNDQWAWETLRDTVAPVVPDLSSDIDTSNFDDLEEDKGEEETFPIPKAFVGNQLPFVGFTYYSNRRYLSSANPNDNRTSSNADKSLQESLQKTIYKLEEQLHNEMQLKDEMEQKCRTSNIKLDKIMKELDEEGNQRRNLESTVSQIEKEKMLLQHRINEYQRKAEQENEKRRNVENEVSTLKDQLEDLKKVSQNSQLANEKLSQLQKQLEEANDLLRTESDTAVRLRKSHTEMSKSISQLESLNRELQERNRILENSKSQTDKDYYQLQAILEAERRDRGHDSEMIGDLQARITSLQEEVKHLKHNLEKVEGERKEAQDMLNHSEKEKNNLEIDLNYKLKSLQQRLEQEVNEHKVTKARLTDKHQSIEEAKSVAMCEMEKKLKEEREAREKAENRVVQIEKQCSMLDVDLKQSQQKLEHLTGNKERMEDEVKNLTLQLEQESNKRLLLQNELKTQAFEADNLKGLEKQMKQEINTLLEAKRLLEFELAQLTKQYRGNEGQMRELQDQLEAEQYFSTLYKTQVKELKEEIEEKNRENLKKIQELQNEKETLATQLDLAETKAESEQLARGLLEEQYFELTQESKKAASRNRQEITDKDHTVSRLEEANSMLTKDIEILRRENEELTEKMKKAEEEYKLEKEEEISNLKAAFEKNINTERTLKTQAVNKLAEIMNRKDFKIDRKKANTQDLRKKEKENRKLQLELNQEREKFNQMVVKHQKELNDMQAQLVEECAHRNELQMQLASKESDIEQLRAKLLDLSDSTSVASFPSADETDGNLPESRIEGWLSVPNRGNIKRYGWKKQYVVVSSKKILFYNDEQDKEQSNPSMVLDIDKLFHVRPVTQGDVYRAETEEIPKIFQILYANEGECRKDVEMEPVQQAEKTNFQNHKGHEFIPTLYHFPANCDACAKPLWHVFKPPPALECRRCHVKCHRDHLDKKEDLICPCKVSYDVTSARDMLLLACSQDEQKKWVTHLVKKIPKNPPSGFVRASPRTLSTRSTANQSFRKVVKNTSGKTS

T1 sequence (O75116 11-552): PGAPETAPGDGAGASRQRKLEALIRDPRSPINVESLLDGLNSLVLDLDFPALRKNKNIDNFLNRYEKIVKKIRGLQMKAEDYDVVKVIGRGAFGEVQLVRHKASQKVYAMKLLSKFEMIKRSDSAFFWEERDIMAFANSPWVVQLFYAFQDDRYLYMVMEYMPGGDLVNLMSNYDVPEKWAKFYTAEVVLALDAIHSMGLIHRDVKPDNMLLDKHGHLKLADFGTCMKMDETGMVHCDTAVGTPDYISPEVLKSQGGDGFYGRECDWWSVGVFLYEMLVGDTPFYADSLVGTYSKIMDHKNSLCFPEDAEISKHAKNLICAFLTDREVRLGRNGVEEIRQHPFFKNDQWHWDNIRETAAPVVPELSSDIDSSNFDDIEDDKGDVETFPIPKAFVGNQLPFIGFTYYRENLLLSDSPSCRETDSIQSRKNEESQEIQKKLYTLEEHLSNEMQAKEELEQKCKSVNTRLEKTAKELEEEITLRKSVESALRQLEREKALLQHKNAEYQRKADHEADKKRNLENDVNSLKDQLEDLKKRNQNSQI

For `CCn1nc(-c2cnc(-c3ccc(C4CC4)nc3)c(C)c2)nc1Nc1cc2c(cc1C)C(=O)NC2C` (stereo not drawn) [Example 121], the half-inhibitory concentration (IC50) in experiment [1] was less than 0.3 µM; in experiment [2], more than 10 µM.

Turning to `CCn1nc(-c2ccc(-c3ccc(C4CC4)nc3)c(C)c2)nc1Nc1cc2c(cc1F)C(=O)NC2C` (stereo not drawn) [Example 80], the figures for the IC50 in experiment [1] and in experiment [2] were less than 0.3 µM and more than 10 µM, respectively.

Take `Cn1nc(-c2ccc(-n3cnc(C4CC4)c3)cc2)nc1Nc1ccc2c(c1)CNC2=O` [Example 14]: the figures for the IC50 in experiment [1] and in experiment [2] were less than 0.3 µM and more than 10 µM, respectively.

As to `CCn1nc(-c2ccc(-c3ccc(C)nc3)c(C)c2)nc1Nc1ccc2c(c1)CNC2=O` [Example 31], the concentration for half-maximal inhibition (IC50) in experiment [1] is less than 0.3 µM; in experiment [2], 3 to 10 µM.

For `CCn1nc(-c2ccc(-c3cc(C)cnc3C)c(C)c2)nc1Nc1cc2c(cc1C)C(=O)NC2C` (stereo not drawn) [Example 87], the half-maximal inhibitory concentration (IC50) in experiment [1] is 3 to 10 µM; in experiment [2], more than 10 µM.

On to `CCn1nc(-c2ccc(-c3cnc(C)c(C)c3)cc2)nc1Nc1ccc2c(c1)CNC2=O` [Example 42], for which the IC50 in experiment [1] and in experiment [2] was less than 0.3 µM throughout.

As to `CCn1nc(-c2ccc(-c3ccc(C)nc3)cc2)nc1Nc1ccc2c(c1)C(F)NC2=O` (stereo not drawn) [Example 93], the IC50 in experiment [1] was less than 0.3 µM; in experiment [2] it was 3 to 10 µM.

In the case of `CCn1nc(-c2ccc(C3CCN(C)CC3)cc2C)nc1Nc1cc2c(cc1C)C(=O)NC2C` (stereo not drawn) [Example 128], the IC50 in experiment [1] and in experiment [2] was more than 10 µM in each case.

For the molecule `CCn1nc(-c2ccc(-c3ccc(C)nc3)c(C(=O)OC)c2)nc1Nc1cc2c(cc1C)C(=O)NC2C` (stereo not drawn) [Example 115], the figures for the IC50 in experiment [1] and in experiment [2] were less than 0.3 µM and more than 10 µM, respectively.

Consider `CCn1nc(-c2ccc(-c3ccc(C)nc3)cc2)nc1Nc1ccc2c(c1C)C(C)NC2=O` (stereo not drawn) [Example 43], for which the IC50 in experiment [1] was 3 to 10 µM; in experiment [2], more than 10 µM.

On to `CCn1nc(-c2ccc(-c3cnn(CC(F)(F)F)c3)cc2)nc1Nc1cc2c(cc1C)C(=O)NC2C` (stereo not drawn) [Example 152], for which the values for the IC50 in experiment [1] and in experiment [2] were less than 0.3 µM and 3 to 10 µM, respectively.

With `CCn1nc(-c2ccc(-n3cnc(C4CC4)c3)cc2)nc1Nc1cc2c(cc1C)C(=O)NC2C` (stereo not drawn) [Example 45], the values for the half-maximal inhibitory concentration (IC50) in experiment [1] and in experiment [2] were less than 0.3 µM and 3 to 10 µM, respectively.

Take `CCn1nc(-c2ccc(-c3ccc(C4CC4)cn3)nc2)nc1Nc1cc2c(cc1C)C(=O)NC2C` (stereo not drawn) [Example 137]: the results for the half-maximal inhibitory concentration (IC50) in experiment [1] and in experiment [2] were less than 0.3 µM and 0.3 to 3 µM, respectively.

Turning to `CCn1nc(-c2ccc(-c3ccc(C)nc3)nc2)nc1Nc1ccc2c(c1)C(C)NC2=O` (stereo not drawn) [Example 110], the figures for the IC50 in experiment [1] and in experiment [2] were less than 0.3 µM and more than 10 µM, respectively.

For `Cc1cc(-c2nc(Nc3ccc4c(c3C)CNC4=O)n(C)n2)ccc1-c1cnc(C2CC2)n1C` [Example 12], the IC50 in experiment [1] was 3 to 10 µM; in experiment [2], more than 10 µM.

For the molecule `CCn1nc(-c2ccc(-c3ccc(C)nc3)c(C)c2)nc1Nc1ccc2c(c1)C(C)NC2=O` (stereo not drawn) [Example 72], the IC50 in experiment [1] was less than 0.3 µM; in experiment [2], more than 10 µM.

As for `CCn1nc(-c2ccc(-c3ccncc3)cc2)nc1Nc1ccc2c(c1)CNC2=O` [Example 30], the IC50 in experiment [1] was less than 0.3 µM; in experiment [2], 3 to 10 µM.

As for `CCn1nc(-c2ccc(C3CCC(C)NC3)c(C)c2)nc1Nc1cc2c(cc1C)C(=O)NC2C` (stereo not drawn) [Example 145, 5-[[2-ethyl-5-[3-methyl-4-(6-methyl-3-piperidyl)phenyl]-1,2,4-triazol-3-yl]amino]-3,6-dimethyl-isoindolin-1-one], the IC50 in experiment [1] is 3 to 10 µM; in experiment [2] it was more than 10 µM.

Consider `CCn1nc(-c2ccc(C3CCCN(C)C3)c(C)c2)nc1Nc1cc2c(cc1C)C(=O)NC2C` (stereo not drawn) [Example 140], for which the half-inhibitory concentration (IC50) in experiment [1] and in experiment [2] was more than 10 µM throughout.

As for `CCn1nc(-c2ccc(-c3ccc(C)nc3)cc2F)nc1Nc1ccc2c(c1)C(C)NC2=O` (stereo not drawn) [Example 81], the figures for the IC50 in experiment [1] and in experiment [2] were less than 0.3 µM and more than 10 µM, respectively.

For `Cc1cn(-c2ccc(-c3nc(Nc4ccc5c(c4)CNC5=O)n(C)n3)cc2)cn1` [Example 1], the figures for the IC50 in experiment [1] and in experiment [2] were less than 0.3 µM and more than 10 µM, respectively.

On to `CCn1nc(-c2ccc(-c3ccc(C)nc3)cc2)nc1Nc1cc2c(cc1C)C(=O)NC2C` (single isomer, unassigned) [Example 78], for which the half-inhibitory concentration (IC50) in experiment [1] is less than 0.3 µM; in experiment [2] it was 3 to 10 µM.

On to `CCn1nc(-c2ccc(-c3ccn(C)c3)cc2)nc1Nc1cc2c(cc1C)C(=O)NC2C` (stereo not drawn) [Example 136], for which the IC50 in experiment [1] is less than 0.3 µM; in experiment [2] it was 3 to 10 µM.

Consider `CCn1nc(-c2cc(C)c(-c3ccc(C4CC4)cn3)cc2C)nc1Nc1cc2c(cc1C)C(=O)NC2C` (stereo not drawn) [Example 114], for which the half-inhibitory concentration (IC50) in experiment [1] is less than 0.3 µM; in experiment [2] it was more than 10 µM.

For `CCn1nc(-c2ccc(-n3cnc(C4CC4)c3)cc2)nc1Nc1ccc2c(c1)C1(CC1)NC2=O` [Example 23], the IC50 in experiment [1] is less than 0.3 µM; in experiment [2] it was more than 10 µM.

With `Cn1nc(-c2ccc(-c3ccnc(C(F)(F)F)c3)cc2)nc1Nc1ccc2c(c1)CNC2=O` [Example 5], the results for the IC50 in experiment [1] and in experiment [2] were less than 0.3 µM and 3 to 10 µM, respectively.

As for `CCn1nc(-c2ccc(-c3ccc(C)nc3)nc2)nc1Nc1cc2c(cc1C)C(=O)NC2C` (stereo not drawn) [Example 71], the figures for the IC50 in experiment [1] and in experiment [2] were less than 0.3 µM and more than 10 µM, respectively.

Consider `CCn1nc(-c2ccc(-c3ccnc(C)c3)c(F)c2)nc1Nc1ccc2c(c1)CNC2=O` [Example 34], for which the IC50 was less than 0.3 µM in experiment [1] and 3 to 10 µM in experiment [2].

Turning to `CCn1nc(-c2ccc(-n3cc(C4CC4)nc3C)cc2)nc1Nc1ccc2c(c1C)CNC2=O` [Example 8], the figures for the IC50 in experiment [1] and in experiment [2] were less than 0.3 µM and more than 10 µM, respectively.

As for `CCn1nc(-c2ccc(-c3ccn(CC(F)(F)F)c3)cc2)nc1Nc1cc2c(cc1C)C(=O)NC2C` (stereo not drawn) [Example 124], the values for the IC50 in experiment [1] and in experiment [2] were less than 0.3 µM and 3 to 10 µM, respectively.

As to `CCn1nc(-c2ccc(-c3ccc(C4CC4)cn3)c(C)c2)nc1Nc1ccc2c(c1)C(C)NC2=O` (stereo not drawn) [Example 112], the IC50 in experiment [1] is less than 0.3 µM; in experiment [2], more than 10 µM.

Turning to `CCn1nc(-c2cc(C)c(-c3ccc(C)cn3)cc2F)nc1Nc1cc2c(cc1C)C(=O)NC2C` (stereo not drawn) [Example 120], the IC50 was less than 0.3 µM in experiment [1] and more than 10 µM in experiment [2].

Regarding `CCn1nc(-c2ccc(-c3ccc(C4CC4)nc3)nc2)nc1Nc1cc2c(cc1C)C(=O)NC2C` (stereo not drawn) [Example 97], the 50% inhibitory concentration (IC50) in experiment [1] was less than 0.3 µM; in experiment [2], 3 to 10 µM.

With `CCn1nc(-c2ccc(-c3ccc(C)nc3)cc2)nc1Nc1cc2c(cc1C)C(=O)NC2` [Example 102], the concentration for half-maximal inhibition (IC50) in experiment [1] was less than 0.3 µM; in experiment [2] it was 0.3 to 3 µM.

For the molecule `CCn1nc(-c2ccc(C3CCCN(CC(F)(F)F)C3)cc2)nc1Nc1cc2c(cc1F)C(=O)NC2C` (stereo not drawn) [Example 143], the half-maximal inhibitory concentration (IC50) in experiment [1] was 0.3 to 3 µM; in experiment [2], more than 10 µM.

`CCn1nc(-c2ccc(-c3ccc(C4CC4)nc3)c(C)c2)nc1Nc1ccc2c(c1)C(C)NC2=O` (stereo not drawn) [Example 66]: the IC50 was less than 0.3 µM in experiment [1] and more than 10 µM in experiment [2].

Consider `CCn1nc(-c2ccc(-c3ccc(C)nc3)c(C)c2)nc1Nc1cc2c(cc1C)C(=O)NC2C` (stereo not drawn) [Example 75], for which the 50% inhibitory concentration (IC50) in experiment [1] is less than 0.3 µM; in experiment [2], 3 to 10 µM.

For the molecule `CCn1nc(-c2ccc(-c3ccc(C4CC4)cn3)c(C)c2)nc1Nc1ccc2c(c1)CNC2=O` [Example 52], the half-maximal inhibitory concentration (IC50) in experiment [1] is less than 0.3 µM; in experiment [2], more than 10 µM.

On to `CCn1nc(-c2ccc(-c3ccc(C)nc3)c(C(C)(C)O)c2)nc1Nc1cc2c(cc1C)C(=O)NC2C` (stereo not drawn) [Example 119], for which the IC50 in experiment [1] was 0.3 to 3 µM; in experiment [2], more than 10 µM.
